# Reference: patent US11279683B2, “Thiophene derivatives as antiviral agents” (ENYO PHARMA, priority 2016, dated 2022)
# Test system: H1N1 (influenza A/New Caledonia/20/99)
# Assay: microbe, parasite or virus in culture
# Format: cell-based
# Settings: not given
row,Compound,IC50 [µM]
1,"2-[[6-tert-butoxycarbonyl-3-[(4-chlorophenyl)carbamoyl]-5,7-dihydro-4H-thieno[2,3-c]pyridin-2-yl]carbamoyl]cyclohexanecarboxylic acid [Compound 91]",10

# Same assay, conditions: Influenza A virus, H1N1, A549, 48 h
row,Compound,IC50 [µM]
1,"O=C(Nc1ccc(Cl)cc1)c1c(NC(=O)C2CCC(C(=O)O)CC2)sc2c1CCC2 (single isomer, unassigned) [Compound 97, 4-[[3-[(4-chlorophenyl)carbamoyl]-5,6-dihydro-4H-cyclopenta[b]thiophen-2-yl]carbamoyl]cyclohexanecarboxylic acid]",14.7
2,"O=C(Nc1ccc(Cl)cc1)c1c(NC(=O)[C@H]2CCCC[C@H]2C(=O)NO)sc2c1CCC2 (stereo in doubt) [Compound 90, N-(4-chlorophenyl)-2-[[2-(hydroxycarbamoyl)cyclohexanecarbonyl]amino]-5,6-dihydro-4H-cyclopenta[b]thiophene-3-carboxamide]",9
3,"O=C1CCCC(C(=O)Nc2sc3c(c2C(=O)Nc2ccc(Cl)cc2)CCC3)C1 (stereo not shown) [Compound 53, N-(4-Chlorophenyl)-2-[(3-oxocyclohexanecarbonyl)amino]-5,6-dihydro-4H-cyclopenta[b]thiophene-3-carboxamide]",12.8
4,"O=C(Nc1ccc(Cl)cc1)c1c(NC(=O)C2CCCCC2CO)sc2c1CCC2 (stereo not shown) [Compound 56, N-(4-Chlorophenyl)-2-[[2-(hydroxymethyl)cyclohexanecarbonyl]amino]-5,6-dihydro-4H-cyclopenta[b]thiophene-3-carboxamide]",24
5,"O=C(NC1CCCCC1)c1c(NC(=O)C2CCCCC2C(=O)O)sc2c1CCC2 (stereo not shown) [Compound 65, 2-[[3-(Cyclohexylcarbamoyl)-5,6-dihydro-4H-cyclopenta[b]thiophen-2-yl]carbamoyl]cyclohexanecarboxylic acid]",17.7
6,"CC(C)c1cc(C(=O)Nc2ccccc2)c(NC(=O)C2CCCCC2C(=O)O)s1 (stereo not shown) [Compound 72, 2-[[5-Isopropyl-3-(phenylcarbamoyl)-2-thienyl]carbamoyl]cyclohexanecarboxylic acid]",9.92
7,"CONC(=O)[C@@H]1CCCC[C@@H]1C(=O)Nc1sc2c(c1C(=O)Nc1ccc(Cl)cc1)CCC2 (stereo in doubt) [Compound 88, N1-[3-[(4-chlorophenyl)carbamoyl]-5,6-dihydro-4H-cyclopenta[b]-thiophen-2-yl]-N2-methoxy-cyclohexane-1,2-dicarboxamide]",8.4
8,"NS(=O)(=O)N1CCOC(C(=O)Nc2sc3c(c2C(=O)Nc2ccc(Cl)cc2)CCC3)C1 (stereo not shown) [Compound 87, N-[3-[(4-chlorophenyl)carbamoyl]-5,6-dihydro-4H-cyclopenta[b]thiophen-2-yl]-4-sulfamoyl-morpholine-2-carboxamide]",6.75
9,"CN(C(=O)c1c(NC(=O)C2CCCCC2C(=O)O)sc2c1CCC2)c1ccc(Cl)cc1 (stereo not shown) [Compound 34, 2-[[3-[(4-Chlorophenyl)-methyl-carbamoyl]-5,6-dihydro-4H-cyclopenta[b]thiophen-2-yl]carbamoyl]cyclohexanecarboxylic acid]",30.4
10,"O=C(Nc1ncc(Cl)s1)c1c(NC(=O)C2CCCCC2C(=O)O)sc2c1CCC2 (stereo not shown) [Compound 29, 2-[[3-[(5-Chlorothiazol-2-yl)carbamoyl]-5,6-dihydro-4H-cyclopenta[b]thiophen-2-yl]carbamoyl]cyclohexanecarboxylic acid]",6.78
11,"CC(C)c1ccc(NC(=O)c2c(NC(=O)C3CCCCC3C(=O)O)sc3c2CCC3)cc1 (stereo not shown) [Compound 25, 2-[[3-[(4-Isopropylphenyl)carbamoyl]-5,6-dihydro-4H-cyclopenta[b]thiophen-2-yl]carbamoyl]cyclohexanecarboxylic acid]",4.68
12,"CS(=O)(=O)N1CCCC(C(=O)Nc2sc3c(c2C(=O)Nc2ccc(Cl)cc2)CCC3)C1 (stereo not shown) [Compound 95, N-[3-[(4-chlorophenyl)carbamoyl]-5,6-dihydro-4H-cyclopenta[b]thiophen-2-yl]-1-methylsulfonyl-piperidine-3-carboxamide]",13.7
13,"O=C(Nc1ccc(Cl)nc1)c1c(NC(=O)C2CCCCC2C(=O)O)sc2c1CCC2 (stereo not shown) [Compound 2, 2-[[3-[(6-Chloro-3-pyridyl)carbamoyl]-5,6-dihydro-4H-cyclopenta[b]thiophen-2-yl]carbamoyl]cyclohexanecarboxylic acid]",18
14,"O=C(Nc1ccc(Cl)cc1)c1c(N2C(=O)C3CCCCC3C2=O)sc2c1CCC2 (stereo not shown) [Compound 54, N-(4-Chlorophenyl)-2-(1,3-dioxo-3a,4,5,6,7,7a-hexahydroisoindol-2-yl)-5,6-dihydro-4H-cyclopenta[b]thiophene-3-carboxamide]",5.98
15,"CS(=O)(=O)N1CCOCC1C(=O)Nc1sc2c(c1C(=O)Nc1ccc(Cl)cc1)CCC2 (stereo not shown) [Compound 93, N-[3-[(4-chlorophenyl)carbamoyl]-5,6-dihydro-4H-cyclopenta[b]thiophen-2-yl]-4-methylsulfonyl-morpholine-3-carboxamide]",12.7
16,"NS(=O)(=O)N1CCC1C(=O)Nc1sc2c(c1C(=O)Nc1ccc(Cl)cc1)CCC2 (stereo not shown) [Compound 102, N-[3-[(4-chlorophenyl)carbamoyl]-5,6-dihydro-4H-cyclopenta[b]thiophen-2-yl]-1-sulfamoyl-azetidine-2-carboxamide]",20.9
17,"O=C(Nc1ccc(Cl)cc1)c1c(NC(=O)C2CCCCC2C(=O)O)sc2c1CCCC2 (stereo not drawn) [Compound 61, 2-[[3-[(4-Chlorophenyl)carbamoyl]-4,5,6,7-tetrahydrobenzothiophen-2-yl]carbamoyl]cyclohexane-cis-carboxylic acid]",8.59

row,Compound,IC50 [µM]
1,"O=C(NCc1ccccc1)c1c(NC(=O)C2CCCCC2C(=O)O)sc2c1CCC2 (stereo not shown) [Compound 63, 2-[[3-(Benzylcarbamoyl)-5,6-dihydro-4H-cyclopenta[b]thiophen-2-yl]carbamoyl]cyclohexanecarboxylic acid]",21.4
2,"O=C(Nc1ccc(Cl)cc1)c1c(NC(=O)C2COCCN2)sc2c1CCC2 (stereo not shown) [Compound 103, N-[3-[(4-chlorophenyl)carbamoyl]-5,6-dihydro-4H-cyclopenta[b]thiophen-2-yl]morpholine-3-carboxamide]",24.2
3,"CC(=O)N1CCC1C(=O)Nc1sc2c(c1C(=O)Nc1ccc(Cl)cc1)CCC2 (stereo not shown) [Compound 84, 1-acetyl-N-[3-[(4-chlorophenyl)carbamoyl]-5,6-dihydro-4H-cyclopenta[b]thiophen-2-yl]azetidine-2-carboxamide]",29.6
4,"O=C(CC1CCOCC1)Nc1sc2c(c1C(=O)Nc1ccc(Cl)cc1)CCC2 [Compound 81, N-(4-chlorophenyl)-2-[(2-tetrahydropyran-4-ylacetyl)amino]-5,6-dihydro-4H-cyclopenta[b]thiophene-3-carboxamide]",3.9
5,"O=C(Nc1ccc(OC(F)(F)F)cc1)c1c(NC(=O)C2CCCCC2C(=O)O)sc2c1CCC2 (stereo not shown) [Compound 20, 2-[[3-[[4-(Trifluoromethoxy)phenyl]carbamoyl]-5,6-dihydro-4H-cyclopenta[b]thiophen-2-yl]carbamoyl]cyclohexanecarboxylic acid]",6.48
6,"O=C(Nc1ccc2c(c1)COC2)c1c(NC(=O)C2CCCCC2C(=O)O)sc2c1CCC2 (stereo not shown) [Compound 30, 2-[[3-(1,3-Dihydroisobenzofuran-5-ylcarbamoyl)-5,6-dihydro-4H-cyclopenta[b]thiophen-2-yl]carbamoyl]cyclohexanecarboxylic acid]",19.6
7,"O=C1CC(C(=O)Nc2sc3c(c2C(=O)Nc2ccc(Cl)cc2)CCC3)CCN1 (stereo not shown) [Compound 101, N-[3-[(4-chlorophenyl)carbamoyl]-5,6-dihydro-4H-cyclopenta[b]thiophen-2-yl]-2-oxo-piperidine-4-carboxamide]",19
8,"O=C(Nc1ccc(CCO)cc1)c1c(NC(=O)C2CCCCC2C(=O)O)sc2c1CCC2 (stereo not shown) [Compound 9, 2-[[3-[[4-(2-Hydroxyethyl)phenyl]carbamoyl]-5,6-dihydro-4H-cyclopenta[b]thiophen-2-yl]carbamoyl]cyclohexanecarboxylic acid]",21.1
9,"O=C(O)C=CC(=O)Nc1sc2c(c1C(=O)Nc1ccc(Cl)cc1)CCC2 [Compound 43, 4-[[3-[(4-Chlorophenyl)carbamoyl]-5,6-dihydro-4H-cyclopenta[b]thiophen-2-yl]amino]-4-oxo-but-2-enoic acid]",33.2
10,"O=C(O)CC1(CC(=O)Nc2sc3c(c2C(=O)Nc2ccc(Cl)cc2)CCC3)CCCC1 [Compound 45, 2-[1-[2-[[3-[(4-Chlorophenyl)carbamoyl]-5,6-dihydro-4H-cyclopenta[b]thiophen-2-yl]amino]-2-oxo-ethyl]cyclopentyl]acetic acid]",8.1
11,"O=C(Nc1ccc(Cl)cc1)c1c(NC(=O)C2CCCC(C(=O)O)C2)sc2c1CCC2 (stereo not shown) [Compound 99, 3-[[3-[(4-chlorophenyl)carbamoyl]-5,6-dihydro-4H-cyclopenta[b]thiophen-2-yl]carbamoyl]cyclohexanecarboxylic acid]",16.6
12,"CS(=O)(=O)N1CCCCC1C(=O)Nc1sc2c(c1C(=O)Nc1ccc(Cl)cc1)CCC2 (stereo not shown) [Compound 100, N-[3-[(4-chlorophenyl)carbamoyl]-5,6-dihydro-4H-cyclopenta[b]thiophen-2-yl]-1-methylsulfonyl-piperidine-2-carboxamide]",16.6
13,"Cc1cccc(NC(=O)c2c(NC(=O)C3CCCCC3C(=O)O)sc3c2CCCC3)c1 (stereo not shown) [Compound 69, 2-[[3-(m-Tolylcarbamoyl)-4,5,6,7-tetrahydrobenzothiophen-2-yl]carbamoyl]cyclohexanecarboxylic acid]",13.9
14,"O=C(Nc1ccc(Cl)cc1)c1c(NC(=O)C2CCCCC2C(=O)O)sc2c1CCS2 (stereo not shown) [Compound 40, 2-[[4-[(4-Chlorophenyl)carbamoyl]-2,3-dihydrothieno[2,3-b]thiophen-5-yl]carbamoyl] cyclohexanecarboxylic acid]",7.35
15,"O=C(Cc1cnccn1)Nc1sc2c(c1C(=O)Nc1ccc(Cl)cc1)CCC2 [Compound 78, N-(4-chlorophenyl)-2-[(2-pyrazin-2-ylacetyl)amino]-5,6-dihydro-4H-cyclopenta[b]thiophene-3-carboxamide]",1
16,"O=C(Nc1ccc(C(F)(F)F)cc1)c1c(NC(=O)C2CCCCC2C(=O)O)sc2c1CCC2 (stereo not shown) [Compound 27, 2-[[3-[[4-(Trifluoromethyl)phenyl]carbamoyl]-5,6-dihydro-4H-cyclopenta[b]thiophen-2-yl]carbamoyl]cyclohexanecarboxylic acid]",18.1
